Values of other authors, collected in patent publication US5840712A, “Water soluble vitamin B12 receptor modulating agents and methods related thereto” (Receptagen Corporation, priority 1995, dated 1998).

Target: avidin (Gallus gallus, UniProt P02701)
Sequence (P02701 25-152): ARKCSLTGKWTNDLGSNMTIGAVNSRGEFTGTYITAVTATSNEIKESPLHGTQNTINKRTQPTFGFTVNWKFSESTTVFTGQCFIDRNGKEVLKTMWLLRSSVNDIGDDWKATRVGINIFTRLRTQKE

Structure (SMILES): O=C(O)CCCC[C@@H]1SC[C@@H]2NC(=O)N[C@@H]21 [biotin]
- specific binding affinity of biotin for avidin (Ka): 10^15
